Laboratory results from patent US4469681A, “Method and system for the controlled release of biologically active substances to a body fluid” (The Rockefeller University, priority 1981, dated 1984).

Assays:
Concanavalin A = Concanavalin A (Canavalia ensiformis, UniProt P02866); experiment: Binding to and glucose displacement from immobilized Concanavalin A columns; parameters: species or system Jack Bean
Protocol: At the point indicated by the arrow, 0.2M glucose in the column buffer was begun. Fractions (2.0 ml) were collected at a flow rate of 10-15 ml/h.
Displacement of hormone was accomplished using 1.0 ml pulses of column buffer containing varying amounts of glucose. Glucose content is indicated over the appropriate arrows. Fractions (1.7 ml) were collected at a flow rate of 10-15 ml/h.

blood glucose = experiment: Blood-glucose depression assay modified from the U.S. Pharmacopeia; format: in vivo; details: 60 minutes after injection; for Blood glucose depression: 0.1 mg protein/100 gm body weight subcutaneous after overnight fast
Text: weight by subcutaneous injection.
injection using a Beckman Glucose Analyzer 2.

With “Control insulin: porcine insulin (Lilly), unmodified” the “Binding to immobilized Concanavalin A” value (Concanavalin A; 20 mg applied to column, buffer 1 mM MgCl2, 1 mM CaCl2, 50 mM NaCl, 25 mM sodium phosphate, pH 7.4) was “did not bind”, the “Displacement from Concanavalin A binding sites by glucose” value (Concanavalin A; 0.2M glucose in column buffer, 1,000:1 molar excess of glucose) was “none was eluted by the addition of glucose” and the Blood glucose depression (blood glucose; Animal A) was 75 mg %. The Blood glucose depression (blood glucose; Animal B) was 70 mg %, the Blood glucose depression (blood glucose; Animal C) was 79 mg % and the Blood glucose depression (blood glucose; Animal D) was 79 mg %. For the same substance, the Blood glucose depression (blood glucose; Animal E) was 64 mg %, the Blood glucose depression (blood glucose; Animal F) was 73 mg % and the “Blood glucose depression, Mean ± S.E.M.” value (blood glucose; Mean of animals A-F, 0.1 mg protein/100 gm body weight subcutaneous) was 73.33 ± 2.35 mg %.
